In US8623862B2, “Derivatives of N-[(1H-pyrazol-1-yl)aryl]-1H-indole or 1H-indazole-3-carboxamide, preparation thereof and applications thereof in therapeutics” (Sanofi, priority 2011, dated 2014):
Counter-ions that a name gives are not always drawn. Like-named read-outs stand apart in the source and are kept apart here.

Tested on: platelet aggregation
Assay: Inhibition of platelet aggregation in vitro (rat blood);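 note: aggregation induced by ADP added as 4 µL of a 250 µM solution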
Format: cell-based
Conditions: read-out: Inhibition of platelet aggregation in vitro (rat blood);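 note: aggregation induced by ADP added as 4 µL of a 250 µM solution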
In short: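 Platelet-rich plasma from male Sprague-Dawley rats (250-300 g), prepared by centrifugation at 300 g for 5 minutes. Aggregation measured at 37° C in an aggregometer. Percentage inhibition derived from area under the absorbance curve over 6 minutes.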

[1] = rat platelet-rich plasma, ADP-induced aggregation, area under the curve of absorbance for 6 minutes
[2] = 0.1 h, rat platelet-rich plasma, ADP-induced aggregation, area under the curve of absorbance for 6 minutes

Structure (SMILES) | IC50 [1] [nM] | IC50 (rat blood, in vitro) [nM] | further results
CCCC(=O)c1cnn(-c2ccc(NC(=O)c3cn(CC(=O)NCCO)c4ccc(Cl)cc34)nn2)c1C [Compound 33] | 80 |  | 
CCCC(=O)c1cnn(-c2ccc(NC(=O)c3cn(CC(=O)N4CCN(CCN(C)C)CC4)c4ccc(Cl)cc34)cc2)c1C [Compound 150] |  | 240 | 
CCCC(=O)c1cnn(-c2ccc(NC(=O)c3cn(CC(=O)NCC(C)(C)N(C)C)c4ccc(Cl)cc34)nn2)c1C [Compound 83] | 330 |  | 
CCCC(=O)c1cnn(-c2ccc(NC(=O)c3cn(CC(=O)N4CC(O)CC4C(=O)NC4CCC4)c4ccc(Cl)cc34)cc2)c1C (stereo not drawn) [Compound 171] |  | 570 | 
CCCC(=O)c1cnn(-c2ccc(NC(=O)c3cn(CC(=O)N4CC[C@@H](C(=O)NC5CC5)C4)c4ccc(Cl)cc34)cc2)c1C [Compound 188] |  | 550 | 
CCCC(=O)c1cnn(-c2ccc(NC(=O)c3cn(CC(=O)N4CCN(C(C)(C)CO)CC4)c4ccc(Cl)cc34)cc2)c1C [Compound 181] |  | 180 | 
CCCC(=O)c1cnn(-c2ccc(NC(=O)c3cn(CC(=O)N4CCCN(C)CC4)c4ccc(C)cc34)cc2)c1C [Compound 130] |  | 470 | 
CCCC(=O)c1cnn(-c2ccc(NC(=O)c3cn(CC(=O)NC4CCCN(C)C4)c4ccc(C)cc34)cc2)c1C (stereo not drawn) [Compound 267] |  |  | IC50 [2]: 450 nM
CCCC(=O)c1cnn(-c2ccc(NC(=O)c3cn(CC(=O)N(C)CCOC)c4ccc(Cl)cc34)cc2)c1C [Compound 200] |  | 480 | 
CCCC(=O)c1cnn(-c2ccc(NC(=O)c3cn(CC(=O)O)c4cc(C)c(Cl)cc34)cc2)c1C [Compound 4, Sodium (3-{[4-(4-butyryl-5-methyl-1H-pyrazol-1-yl)phenyl]carbamoyl}-5-chloro-6-methyl-1H-indol-1-yl)acetate] |  |  | IC50 [2]: 3300 nM
CCCC(=O)c1cnn(-c2ccc(NC(=O)c3cn(CC(=O)N(C)Cc4ccco4)c4ccc(Cl)cc34)nn2)c1C [Compound 62] | 150 |  | 
CCCC(=O)c1cnn(-c2ccc(NC(=O)c3cn(CC(=O)N4CCN(CC(=O)N5CCCC5)CC4)c4ccc(Cl)cc34)cc2)c1C [Compound 198] |  | 410 | 
CCCC(=O)c1cnn(-c2ccc(NC(=O)c3cn(CC(=O)N4CCN(c5ccc(F)cc5)CC4)c4ccc(Cl)cc34)nn2)c1C [Compound 45] | 420 |  | 
CCCC(=O)c1cnn(-c2ccc(NC(=O)c3cn(CC(=O)N4CCC(C(F)(F)F)C4)c4ccc(Cl)cc34)nn2)c1C (stereo not drawn) [Compound 75] | 270 |  | 
CCCC(=O)c1cnn(-c2ccc(NC(=O)c3cn(CC(=O)N4CCNCC4)c4ccc(Cl)cc34)cc2)c1C [Compound 256] | 230 |  | 
CCCC(=O)c1cnn(-c2ccc(NC(=O)c3cn(CC(=O)N4CCCC4)c4ccc(Cl)cc34)nn2)c1C [Compound 40] | 100 |  | 
CCCC(=O)c1cnn(-c2ccc(NC(=O)c3cn(CC(=O)N4CCn5cnnc5C4)c4ccc(Cl)cc34)cc2)c1C [Compound 182] |  | 270 | 
CCCC(=O)c1cnn(-c2ccc(NC(=O)c3cn(CC(=O)N4CCN(CC(F)(F)F)CC4)c4ccc(C)cc34)cc2)c1C [Compound 129] |  | 650 | 
CCCC(=O)c1cnn(-c2ccc(NC(=O)c3cn(CC(=O)N4CCNC(C)C4)c4ccc(C)cc34)cc2)c1C (stereo not drawn) [Compound 242, N-[4-(4-Butyryl-5-methyl-1H-pyrazol-1-yl)phenyl]-5-methyl-1-[2-(3-methylpiperazin-1-yl)-2-oxoethyl]-1H-indole-3-carboxamide hydrochloride] |  |  | IC50 [2]: 510 nM
CCCC(=O)c1cnn(-c2ccc(NC(=O)c3cn(CC(=O)O)c4cc(C)c(Br)cc34)cc2)c1C [Compound 20] | 3900 |  | 

Structure (SMILES) | IC50 [1] [nM] | IC50 (rat blood, in vitro) [nM] | further results
CCCC(=O)c1cnn(-c2ccc(NC(=O)c3cn(CC(=O)N4CCN(CC(=O)OCC)CC4)c4ccc(Cl)cc34)cc2)c1C [Compound 155] |  | 260 | 
CCCC(=O)c1cnn(-c2ccc(NC(=O)c3cn(CC(=O)N4CCN(CCN(C)C(C)=O)CC4)c4ccc(Cl)cc34)cc2)c1C [Compound 211] |  | 280 | 
CCCC(=O)c1cnn(-c2ccc(NC(=O)c3cn(CC(=O)N4CC5CCC(C4)N5C)c4ccc(Cl)cc34)cc2)c1C [Compound 192] |  | 270 | 
CCCC(=O)c1cnn(-c2ccc(NC(=O)c3cn(CC(=O)O)c4ccc(Br)cc34)cc2)c1C [Compound 14] | 1900 |  | 
CCCC(=O)c1cnn(-c2ccc(NC(=O)c3cn(CC(=O)N4Cc5cnn(C)c5C4)c4ccc(Cl)cc34)cc2)c1C [Compound 174] |  | 490 | 
CCCC(=O)c1cnn(-c2ccc(NC(=O)c3cn(CC(=O)N4CC(C)NC(C)C4)c4ccc(Cl)cc34)nn2)c1C (stereo not drawn) [Compound 43] | 120 |  | 
CCCC(=O)c1cnn(-c2ccc(NC(=O)c3cn(CC(=O)N4CCCN(C)CC4)c4ccc(Cl)cc34)nn2)c1C [Compound 99] | 110 |  | 
CCCC(=O)c1cnn(-c2ccc(NC(=O)c3cn(CC(=O)N4CCNCC4C)c4ccc(Cl)cc34)cc2)c1C (stereo not drawn) [Compound 258] | 300 |  | 
CCCC(=O)c1cnn(-c2ccc(NC(=O)c3cn(CC(=O)N4CCN(C5CC5)CC4)c4ccc(C)cc34)cc2)c1C [Compound 122] |  | 450 | 
CCCC(=O)c1cnn(-c2ccc(NC(=O)c3cn(CC(=O)N4CCN(C)CC4)c4cc(Cl)c(Cl)cc34)cc2)c1C [Compound 111] |  | 3700 | 
CCCC(=O)c1cnn(-c2ccc(NC(=O)c3cn(CC(=O)N4CCN(Cc5cccs5)CC4)c4ccc(C)cc34)cc2)c1C [Compound 164] |  | 1010 | 
CCCC(=O)c1cnn(-c2ccc(NC(=O)c3cn(CC(=O)N4CCN(C)C(C)C4)c4ccc(Cl)cc34)nn2)c1C (stereo not drawn) [Compound 77] | 90 |  | 
CCCC(=O)c1cnn(-c2ccc(NC(=O)c3cn(CC(=O)NC)c4cc(C)c(C)cc34)cc2)c1C [Compound 109] |  | 2420 | 
CCCC(=O)c1cnn(-c2ccc(NC(=O)c3cn(CC(=O)N4CCC(OC)CC4)c4ccc(Cl)cc34)nn2)c1C [Compound 94] | 180 |  | 
CCCC(=O)c1cnn(-c2ccc(NC(=O)c3cn(CC(=O)N4CC5CNCC5C4)c4ccc(C)cc34)cc2)c1C (stereo not drawn) [Compound 255] | 180 |  | 
CCCC(=O)c1cnn(-c2ccc(NC(=O)c3cn(CC(=O)N4CCN(CC)CC4)c4ccc(Cl)cc34)nn2)c1C [Compound 47] | 60 |  | 
CCCC(=O)c1cnn(-c2ccc(NC(=O)c3cn(CC(=O)N4CCC(NC)CC4)c4ccc(C)cc34)cc2)c1C [Compound 248] | 320 |  | 
CCCC(=O)c1cnn(-c2ccc(NC(=O)c3cn(CC(=O)N4CCC(O)CC4)c4ccc(Cl)cc34)nn2)c1C [Compound 68] | 70 |  | 
CCCC(=O)c1cnn(-c2ccc(NC(=O)c3cn(CC(=O)N4CCCCC4CN4CCCC4)c4ccc(C)cc34)cc2)c1C (stereo not drawn) [Compound 141] |  | 640 | 
CCCC(=O)c1cnn(-c2ccc(NC(=O)c3cn(CC(=O)N4CCN(C)CC4)c4cc(C)c(Br)cc34)cc2)c1C [Compound 112] |  | 360 | 

Structure (SMILES) | IC50 [1] [nM] | IC50 (rat blood, in vitro) [nM] | further results
CCCC(=O)c1cnn(-c2ccc(NC(=O)c3cn(CC(=O)N4Cc5cccnc5C4)c4ccc(Cl)cc34)cc2)c1C [Compound 187] |  | 610 | 
CCCC(=O)c1cnn(-c2ccc(NC(=O)c3cn(CC(=O)N4CCN(CCS(C)(=O)=O)CC4)c4ccc(Cl)cc34)cc2)c1C [Compound 148] |  | 150 | 
CCCCN1CCN(C(=O)Cn2cc(C(=O)Nc3ccc(-n4ncc(C(=O)CCC)c4C)cc3)c3cc(Cl)ccc32)CC1 [Compound 151] |  | 250 | 
CCCC(=O)c1cnn(-c2ccc(NC(=O)c3cn(CC(=O)N4CCN5CCCC5C4C)c4ccc(Cl)cc34)nn2)c1C (stereo not drawn) [Compound 84] | 90 |  | 
CCCC(=O)c1cnn(-c2ccc(NC(=O)c3cn(CC(=O)N4CCCC(N)C4)c4ccc(C)cc34)cc2)c1C (stereo not drawn) [Compound 244] | 960 |  | 
CCCC(=O)c1cnn(-c2ccc(NC(=O)c3cn(CC(=O)N4CCC(NC)C4)c4ccc(C)cc34)cc2)c1C (stereo not drawn) [Compound 250] | 610 |  | 
CCCC(=O)c1cnn(-c2ccc(NC(=O)c3cn(CC(=O)N4CCN(C)CC4)c4cc(F)c(Cl)cc34)cc2)c1C [Compound 157] |  | 180 | 
CCCC(=O)c1cnn(-c2ccc(NC(=O)c3cn(CC(=O)O)c4ccc(-c5ccccc5)cc34)cc2)c1C [Compound 15] | 25000 |  | 
CCCC(=O)c1cnn(-c2ccc(NC(=O)c3cn(CC(=O)N4CCN(C)CC4)c4ccc(C#N)cc34)cc2)c1C [Compound 160] |  | 1380 | 
CCCC(=O)c1cnn(-c2ccc(NC(=O)c3cn(CC(=O)N4CCN(CCC)CC4)c4ccc(Cl)cc34)nn2)c1C [Compound 48] | 140 |  | 
CCCC(=O)c1cnn(-c2ccc(NC(=O)c3cn(CC(=O)N4CCN(Cc5ccc(F)cc5)CC4)c4ccc(Cl)cc34)cc2)c1C [Compound 165] |  | 310 | 
CCCC(=O)c1cnn(-c2ccc(NC(=O)c3cn(CC(=O)NC4CCNC4)c4ccc(C)cc34)cc2)c1C (stereo not drawn) [Compound 245] | 530 |  | 
CCCC(=O)c1cnn(-c2ccc(NC(=O)c3cn(CC(=O)N4CCN5CCCC5C4)c4ccc(C)cc34)cc2)c1C (stereo not drawn) [Compound 123] |  | 350 | 
CCCC(=O)c1cnn(-c2ccc(NC(=O)c3cn(CC(=O)N4CCN(C)CC4)c4ccc(Cl)cc34)c(C(N)=O)c2)c1C [Compound 220] |  | 220 | 
CCCC(=O)c1cnn(-c2ccc(NC(=O)c3cn(CC(=O)NCCn4cccc4)c4ccc(Cl)cc34)nn2)c1C [Compound 58] | 450 |  | 
CCCC(=O)c1cnn(-c2ccc(NC(=O)c3cn(CC(=O)N4Cc5c[nH]nc5C4)c4ccc(Cl)cc34)cc2)c1C [Compound 175] |  | 290 | 
CCCC(=O)c1cnn(-c2ccc(NC(=O)c3cn(CC(=O)O)c4cc(Cl)c(Cl)cc34)cc2)c1C [Compound 17] | 7300 |  | 
CCCC(=O)c1cnn(-c2ccc(NC(=O)c3cn(CC(=O)N(C)C4CCS(=O)(=O)C4)c4ccc(Cl)cc34)cc2)c1C (stereo not drawn) [Compound 169] |  | 400 | 
CCCC(=O)c1cnn(-c2ccc(NC(=O)c3cn(CC(=O)N4CCN(CCO)CC4)c4ccc(Cl)cc34)cc2)c1C [Compound 146] |  | 100 | 
CCCC(=O)c1cnn(-c2ccc(NC(=O)c3cn(CC(=O)N(C)C4CC4)c4ccc(Cl)cc34)nn2)c1C [Compound 90] | 60 |  | 
